Laboratory results reported in patent US9271978B2 (Zenith Epigenetics Corp., priority 2012, dated 2016).

Key:
Parameters in all cases: key: Active: Compounds with an IC50 value less than 30 μM were deemed to be active.; Not Active: Compounds with an IC50 value less than 30 μM were deemed to be active
c-myc = experiment: Inhibition of c-myc expression in MV4-11 cells (mRNA, real-time PCR); assay type: cell-based; details: Human AML MV4-11 cells, 3 h incubation
Outline: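 MV4-11 cells (2.5×10^4) treated with compound or 0.1% DMSO for 3 h at 37 °C. c-myc mRNA measured by RT real-time PCR duplexed with cyclophilin. IC50 from dose–response curve.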

[1] = molecular target: T1, Brd4 bromodomain 1 (BRD4(1)) (Homo sapiens, UniProt O60885); experiment: Inhibition of tetra-acetylated histone H4 binding to Brd4 bromodomain 1 (TR-FRET); details: tetra-acetylated histone H4 peptide, active = IC50 <30 μM
T1 construct: Illustrative results with the first bromodomain of Brd4; made in house; host or cells: E. coli BL21 (DE3)
Outline: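 N-terminally His-tagged bromodomains (200 nM), expressed in E. coli, were incubated with biotinylated tetra-acetylated histone H4 peptide (25-50 nM), Eu-cryptate streptavidin and XL665 anti-His antibody in HEPES pH 7.4 buffer with KF, 0.2% DMSO, 2 h at room temperature. Inhibition read as decreased 665/620 nm TR-FRET; IC50 from dose-response curves.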

hIL-6 mRNA = experiment: Inhibition of hIL-6 mRNA transcription in U937 cells; assay type: cell-based, human; details: LPS stimulation, active = IC50 <30 μM
Outline: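 U937 cells differentiated 3 days with 60 ng/mL PMA, pretreated 1 h with compound, then stimulated with 1 ug/mL E. coli LPS for 3 h at 37° C. hIL-6 mRNA quantified by one-step qRT-PCR, Ct normalized to internal control, expressed as fold induction relative to control.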

[2] = tested on: human AML MV-4-11 (CRL-9591) cells; experiment: Inhibition of cell proliferation in MV4-11 cells; assay type: cell-based; details: human AML MV-4-11 cells, 72 h; active = IC50 <30 μM
Outline: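 Exponentially growing MV-4-11 cells (5×10^4/well) were treated immediately with two-fold dilutions of compound from 30 μM to 0.2 μM, in triplicate, for 72 h at 37° C, 5% CO2. Viability was measured by MTS absorbance at 490 nm after 3–4 h. Proliferation relative to DMSO after blank correction gave IC50.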

Cc1noc(C)c1-c1ccc(=O)n([C@H](C)c2ccccc2)c1 [Example 134, (R)-5-(3,5-Dimethylisoxazol-4-yl)-1-(1-phenylethyl)pyridin-2(1H)-one]
Active: c-myc activity (IC50 <30 μM) (c-myc) | FRET activity (IC50 <30 μM) BRD4(1) [1] | IL-6 activity (IC50 <30 μM) (hIL-6 mRNA) | Cell Proliferation activity (IC50 <30 μM) [2]

Cc1noc(C)c1-c1cc(N)c(=O)n(Cc2ccc(F)cc2)c1 [Example 180, 3-amino-5-(3,5-dimethylisoxazol-4-yl)-1-(4-fluorobenzyl)pyridin-2(1H)-one]
Active: c-myc activity (IC50 <30 μM) (c-myc) | FRET activity (IC50 <30 μM) BRD4(1) [1] | IL-6 activity (IC50 <30 μM) (hIL-6 mRNA) | Cell Proliferation activity (IC50 <30 μM) [2]

Cc1noc(C)c1-c1ccc(=O)n(Cc2ccccc2)c1 [Example 56, 1-Benzyl-5-(3,5-dimethylisoxazol-4-yl)pyridin-2(1H)-one]
Active: c-myc activity (IC50 <30 μM) (c-myc) | FRET activity (IC50 <30 μM) BRD4(1) [1] | IL-6 activity (IC50 <30 μM) (hIL-6 mRNA) | Cell Proliferation activity (IC50 <30 μM) [2]

Cc1noc(C)c1-c1cc(N)c(=O)n(Cc2ccsc2)c1 [Example 219, 3-amino-5-(3,5-dimethylisoxazol-4-yl)-1-(thiophen-3-ylmethyl)pyridin-2(1H)-one]
Active: c-myc activity (IC50 <30 μM) (c-myc) | FRET activity (IC50 <30 μM) BRD4(1) [1] | IL-6 activity (IC50 <30 μM) (hIL-6 mRNA) | Cell Proliferation activity (IC50 <30 μM) [2]

Cc1noc(C)c1-c1cc(N)c(=O)n(Cc2ccc(Br)cc2)c1 [Example 241, 3-Amino-1-(4-bromobenzyl)-5-(3,5-dimethylisoxazol-4-yl)pyridin-2(1H)-one]
Active: c-myc activity (IC50 <30 μM) (c-myc) | FRET activity (IC50 <30 μM) BRD4(1) [1] | IL-6 activity (IC50 <30 μM) (hIL-6 mRNA) | Cell Proliferation activity (IC50 <30 μM) [2]

Cc1noc(C)c1-c1ccc(=O)n(Cc2ccc(Cl)cc2)c1 [Example 128, 1-(4-Chlorobenzyl)-5-(3,5-dimethylisoxazol-4-yl)pyridin-2(1H)-one]
Active: c-myc activity (IC50 <30 μM) (c-myc) | FRET activity (IC50 <30 μM) BRD4(1) [1] | IL-6 activity (IC50 <30 μM) (hIL-6 mRNA) | Cell Proliferation activity (IC50 <30 μM) [2]

Cc1noc(C)c1-c1cc(N)c(=O)n(Cc2ccccc2)c1 [Example 73, 3-Amino-1-benzyl-5-(3,5-dimethylisoxazol-4-yl)pyridin-2(1H)-one]
Active: c-myc activity (IC50 <30 μM) (c-myc) | FRET activity (IC50 <30 μM) BRD4(1) [1] | IL-6 activity (IC50 <30 μM) (hIL-6 mRNA) | Cell Proliferation activity (IC50 <30 μM) [2]
